According to ChEMBL document CHEMBL4649983, “Selective targeting of the BRG/PB1 bromodomains impairs embryonic and trophoblast stem cell maintenance” (Sci Adv, 2015):
Values joined by “and” are separate entries in the source; they are usually repeats but may differ in a detail not shown here. Equal entries are not always repeated.

Columns and labels:
[1] = biological target: ATPase family AAA domain-containing protein 2 (Homo sapiens) (UniProt Q6PL18); conditions: Compound concentration 10.0 uM, Protein concentration 2.0 uM
[2] = biological target: Bromodomain adjacent to zinc finger domain protein 1A (Homo sapiens) (UniProt Q9NRL2); conditions: Compound concentration 10.0 uM, Protein concentration 2.0 uM
[3] = biological target: Bromodomain-containing protein 9 (Homo sapiens) (UniProt Q9H8M2); conditions: Compound concentration 10.0 uM, Protein concentration 2.0 uM
[4] = biological target: Bromodomain and PHD finger-containing protein 3 (Homo sapiens) (UniProt Q9ULD4); conditions: Compound concentration 10.0 uM, Protein concentration 2.0 uM
[5] = biological target: SWI/SNF-related matrix-associated actin-dependent regulator of chromatin subfamily A member 4 (Homo sapiens) (UniProt P51532); conditions: Compound concentration 10.0 uM, Protein concentration 2.0 uM
[6] = biological target: Transcription initiation factor TFIID subunit 1-like (Homo sapiens) (UniProt Q8IZX4); conditions: Compound concentration 10.0 uM, Protein concentration 2.0 uM
[7] = biological target: Protein polybromo-1 (Homo sapiens) (UniProt Q86U86); conditions: Compound concentration 10.0 uM, Protein concentration 2.0 uM
[8] = biological target: Bromodomain-containing protein 1 (Homo sapiens) (UniProt O95696); conditions: Compound concentration 10.0 uM, Protein concentration 2.0 uM
[9] = biological target: Bromodomain-containing protein 3 (Homo sapiens) (UniProt Q15059); conditions: Compound concentration 10.0 uM, Protein concentration 2.0 uM
[10] = biological target: Peregrin (Homo sapiens) (UniProt P55201); conditions: Compound concentration 10.0 uM, Protein concentration 2.0 uM
[11] = biological target: Protein polybromo-1 (Homo sapiens) (UniProt Q86U86); conditions: Protein concentration 2.0 uM
[12] = biological target: Bromodomain testis-specific protein (Homo sapiens) (UniProt Q58F21); conditions: Compound concentration 10.0 uM, Protein concentration 2.0 uM
[13] = biological target: Nuclear body protein SP140 (Homo sapiens) (UniProt Q13342); conditions: Compound concentration 10.0 uM, Protein concentration 2.0 uM
[14] = biological target: Bromodomain adjacent to zinc finger domain protein 2A (Homo sapiens) (UniProt Q9UIF9); conditions: Compound concentration 10.0 uM, Protein concentration 2.0 uM
[15] = biological target: Transcription intermediary factor 1-alpha (Homo sapiens) (UniProt O15164); conditions: Compound concentration 10.0 uM, Protein concentration 2.0 uM
[16] = biological target: SWI/SNF-related matrix-associated actin-dependent regulator of chromatin subfamily A member 2 (Homo sapiens) (UniProt P51531); test: Thermal Shift Assay. Domain start/stop: A1373-E1493; conditions: Compound concentration 10.0 uM, Protein concentration 2.0 uM
[17] = biological target: SWI/SNF-related matrix-associated actin-dependent regulator of chromatin subfamily A member 2 (Homo sapiens) (UniProt P51531); conditions: Compound concentration 10.0 uM, Protein concentration 2.0 uM
[18] = biological target: Bromodomain-containing protein 4 (Homo sapiens) (UniProt O60885); conditions: Compound concentration 10.0 uM, Protein concentration 2.0 uM
[19] = biological target: ATPase family AAA domain-containing protein 2B (Homo sapiens) (UniProt Q9ULI0); conditions: Compound concentration 10.0 uM, Protein concentration 2.0 uM
[20] = biological target: Bromodomain-containing protein 2 (Homo sapiens) (UniProt P25440); conditions: Compound concentration 10.0 uM, Protein concentration 2.0 uM
[21] = biological target: Transcription intermediary factor 1-alpha (Homo sapiens) (UniProt O15164); conditions: Compound concentration 10.0 uM, Protein concentration 2.0 uM; remark: listed apart in the source
[22] = biological target: Nucleosome-remodeling factor subunit BPTF (Homo sapiens) (UniProt Q12830); conditions: Compound concentration 10.0 uM, Protein concentration 2.0 uM
[23] = biological target: Peregrin (Homo sapiens) (UniProt P55201); conditions: Compound concentration 10.0 uM, Protein concentration 2.0 uM; remark: listed apart in the source
[24] = biological target: Histone-lysine N-methyltransferase ASH1L (Homo sapiens) (UniProt Q9NR48); conditions: Compound concentration 10.0 uM, Protein concentration 2.0 uM
[25] = biological target: Transcription initiation factor TFIID subunit 1-like (Homo sapiens) (UniProt Q8IZX4); conditions: Compound concentration 10.0 uM, Protein concentration 2.0 uM; remark: listed apart in the source
[26] = biological target: Bromodomain and WD repeat-containing protein 3 (Homo sapiens) (UniProt Q6RI45); conditions: Compound concentration 10.0 uM, Protein concentration 2.0 uM
[27] = biological target: Transcription initiation factor TFIID subunit 1 (Homo sapiens) (UniProt P21675); conditions: Compound concentration 10.0 uM, Protein concentration 2.0 uM
[28] = biological target: Histone acetyltransferase p300 (Homo sapiens) (UniProt Q09472); conditions: Compound concentration 10.0 uM, Protein concentration 2.0 uM
[29] = biological target: Protein polybromo-1 (Homo sapiens) (UniProt Q86U86); conditions: Protein concentration 2.0 uM; remark: listed apart in the source
[30] = biological target: Transcription initiation factor TFIID subunit 1 (Homo sapiens) (UniProt P21675); conditions: Compound concentration 10.0 uM, Protein concentration 2.0 uM; remark: listed apart in the source
[31] = biological target: Protein polybromo-1 (Homo sapiens) (UniProt Q86U86); test: Thermal Shift Assay. Domain start/stop: R487-D598; conditions: Compound concentration 10.0 uM, Protein concentration 2.0 uM
[32] = biological target: Bromodomain-containing protein 2 (Homo sapiens) (UniProt P25440); conditions: Compound concentration 10.0 uM, Protein concentration 2.0 uM; remark: listed apart in the source
[33] = biological target: Histone acetyltransferase KAT2B (Homo sapiens) (UniProt Q92831); conditions: Compound concentration 10.0 uM, Protein concentration 2.0 uM
[34] = biological target: Bromodomain and WD repeat-containing protein 1 (Homo sapiens) (UniProt Q9NSI6); conditions: Compound concentration 10.0 uM, Protein concentration 2.0 uM
[35] = biological target: CREB-binding protein (Homo sapiens) (UniProt Q92793); conditions: Compound concentration 10.0 uM, Protein concentration 2.0 uM
[36] = biological target: Protein polybromo-1 (Homo sapiens) (UniProt Q86U86); test: Thermal Shift Assay. Domain start/stop: H23-D159; conditions: Compound concentration 10.0 uM, Protein concentration 2.0 uM
[37] = biological target: Nuclear body protein SP140-like protein (Homo sapiens) (UniProt Q9H930); conditions: Compound concentration 10.0 uM, Protein concentration 2.0 uM
[38] = biological target: Bromodomain adjacent to zinc finger domain protein 2B (Homo sapiens) (UniProt Q9UIF8); conditions: Compound concentration 10.0 uM, Protein concentration 2.0 uM
[39] = biological target: Histone acetyltransferase KAT2A (Homo sapiens) (UniProt Q92830); conditions: Compound concentration 10.0 uM, Protein concentration 2.0 uM
[40] = biological target: Protein polybromo-1 (Homo sapiens) (UniProt Q86U86); conditions: Compound concentration 10.0 uM, Protein concentration 2.0 uM; remark: listed apart in the source
[41] = biological target: Chromatin remodeling regulator CECR2 (Homo sapiens) (UniProt Q9BXF3); conditions: Compound concentration 10.0 uM, Protein concentration 2.0 uM
[42] = biological target: Transcription intermediary factor 1-beta (Homo sapiens) (UniProt Q13263); conditions: Compound concentration 10.0 uM, Protein concentration 2.0 uM
[43] = biological target: Histone acetyltransferase p300 (Homo sapiens) (UniProt Q09472); test: Thermal Shift Assay. Domain start/stop: A1040-S1171; conditions: Compound concentration 10.0 uM, Protein concentration 2.0 uM
[44] = biological target: Bromodomain testis-specific protein (Homo sapiens) (UniProt Q58F21); conditions: Compound concentration 10.0 uM, Protein concentration 2.0 uM; remark: listed apart in the source
[45] = biological target: Bromodomain-containing protein 4 (Homo sapiens) (UniProt O60885); conditions: Compound concentration 10.0 uM, Protein concentration 2.0 uM; remark: listed apart in the source
[46] = biological target: Bromodomain-containing protein 3 (Homo sapiens) (UniProt Q15059); test: Thermal Shift Assay. Domain start/stop: P24-E144; conditions: Compound concentration 10.0 uM, Protein concentration 2.0 uM
[47] = biological target: PH-interacting protein (Homo sapiens) (UniProt Q8WWQ0); conditions: Compound concentration 10.0 uM, Protein concentration 2.0 uM
[48] = biological target: Protein polybromo-1 (Homo sapiens) (UniProt Q86U86); conditions: Compound concentration 10.0 uM, Protein concentration 2.0 uM; remark: listed apart in the source
[49] = biological target: Tripartite motif-containing protein 66 (Homo sapiens) (UniProt O15016); test: Thermal Shift Assay. Domain start/stop: M1091-S1218; conditions: Compound concentration 10.0 uM, Protein concentration 2.0 uM
[50] = biological target: PH-interacting protein (Homo sapiens) (UniProt Q8WWQ0); conditions: Compound concentration 20.0 uM, Protein concentration 25.0 uM
Description: Alphascreen assay. Domain start/stop: D1302-R1434

[51] = Compound concentration 100.0 uM

Sequence of SWI/SNF-related matrix-associated actin-dependent regulator of chromatin subfamily A member 2 (Homo sapiens) (P51531 whole entry): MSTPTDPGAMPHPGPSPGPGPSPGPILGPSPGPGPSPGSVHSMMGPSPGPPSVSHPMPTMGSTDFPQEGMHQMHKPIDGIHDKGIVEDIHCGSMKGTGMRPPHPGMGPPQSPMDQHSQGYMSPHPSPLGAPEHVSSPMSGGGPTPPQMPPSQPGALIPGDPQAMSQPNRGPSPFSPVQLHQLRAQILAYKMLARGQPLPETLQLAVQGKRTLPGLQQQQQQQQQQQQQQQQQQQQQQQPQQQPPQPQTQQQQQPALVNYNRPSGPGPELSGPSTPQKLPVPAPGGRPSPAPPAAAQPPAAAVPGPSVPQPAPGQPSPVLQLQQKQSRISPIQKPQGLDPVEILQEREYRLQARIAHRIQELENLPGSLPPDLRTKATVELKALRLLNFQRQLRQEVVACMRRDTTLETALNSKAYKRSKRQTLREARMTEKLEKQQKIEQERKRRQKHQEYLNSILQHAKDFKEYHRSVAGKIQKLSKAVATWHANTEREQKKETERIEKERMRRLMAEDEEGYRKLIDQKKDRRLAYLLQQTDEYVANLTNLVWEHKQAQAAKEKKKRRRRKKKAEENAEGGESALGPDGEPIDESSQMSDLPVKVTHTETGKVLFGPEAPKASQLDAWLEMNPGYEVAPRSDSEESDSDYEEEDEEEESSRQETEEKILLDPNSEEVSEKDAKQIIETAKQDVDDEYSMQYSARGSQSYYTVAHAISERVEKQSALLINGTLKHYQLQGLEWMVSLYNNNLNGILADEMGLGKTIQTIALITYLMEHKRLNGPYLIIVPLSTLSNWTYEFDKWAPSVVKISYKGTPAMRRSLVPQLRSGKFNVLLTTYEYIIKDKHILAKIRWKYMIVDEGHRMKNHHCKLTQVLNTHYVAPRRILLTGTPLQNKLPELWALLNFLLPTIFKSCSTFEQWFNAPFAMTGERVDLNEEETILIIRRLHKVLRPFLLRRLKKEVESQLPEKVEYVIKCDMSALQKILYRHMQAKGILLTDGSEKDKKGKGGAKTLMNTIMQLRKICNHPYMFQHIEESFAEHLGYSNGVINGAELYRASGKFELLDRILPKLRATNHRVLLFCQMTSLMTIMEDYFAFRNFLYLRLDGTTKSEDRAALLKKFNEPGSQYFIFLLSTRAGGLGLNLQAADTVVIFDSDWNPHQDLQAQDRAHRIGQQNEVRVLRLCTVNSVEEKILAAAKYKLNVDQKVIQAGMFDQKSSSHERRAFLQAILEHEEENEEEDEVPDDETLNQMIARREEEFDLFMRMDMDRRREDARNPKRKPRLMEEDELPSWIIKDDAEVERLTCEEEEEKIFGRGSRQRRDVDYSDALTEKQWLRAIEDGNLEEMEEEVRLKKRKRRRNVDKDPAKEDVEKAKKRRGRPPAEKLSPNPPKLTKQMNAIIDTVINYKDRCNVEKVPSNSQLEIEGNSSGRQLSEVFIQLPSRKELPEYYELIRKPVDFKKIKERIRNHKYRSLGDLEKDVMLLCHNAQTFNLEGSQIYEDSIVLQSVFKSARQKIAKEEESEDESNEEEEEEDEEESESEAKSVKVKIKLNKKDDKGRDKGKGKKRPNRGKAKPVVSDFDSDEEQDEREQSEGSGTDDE
Sequence of Protein polybromo-1 (Homo sapiens) (Q86U86 whole entry): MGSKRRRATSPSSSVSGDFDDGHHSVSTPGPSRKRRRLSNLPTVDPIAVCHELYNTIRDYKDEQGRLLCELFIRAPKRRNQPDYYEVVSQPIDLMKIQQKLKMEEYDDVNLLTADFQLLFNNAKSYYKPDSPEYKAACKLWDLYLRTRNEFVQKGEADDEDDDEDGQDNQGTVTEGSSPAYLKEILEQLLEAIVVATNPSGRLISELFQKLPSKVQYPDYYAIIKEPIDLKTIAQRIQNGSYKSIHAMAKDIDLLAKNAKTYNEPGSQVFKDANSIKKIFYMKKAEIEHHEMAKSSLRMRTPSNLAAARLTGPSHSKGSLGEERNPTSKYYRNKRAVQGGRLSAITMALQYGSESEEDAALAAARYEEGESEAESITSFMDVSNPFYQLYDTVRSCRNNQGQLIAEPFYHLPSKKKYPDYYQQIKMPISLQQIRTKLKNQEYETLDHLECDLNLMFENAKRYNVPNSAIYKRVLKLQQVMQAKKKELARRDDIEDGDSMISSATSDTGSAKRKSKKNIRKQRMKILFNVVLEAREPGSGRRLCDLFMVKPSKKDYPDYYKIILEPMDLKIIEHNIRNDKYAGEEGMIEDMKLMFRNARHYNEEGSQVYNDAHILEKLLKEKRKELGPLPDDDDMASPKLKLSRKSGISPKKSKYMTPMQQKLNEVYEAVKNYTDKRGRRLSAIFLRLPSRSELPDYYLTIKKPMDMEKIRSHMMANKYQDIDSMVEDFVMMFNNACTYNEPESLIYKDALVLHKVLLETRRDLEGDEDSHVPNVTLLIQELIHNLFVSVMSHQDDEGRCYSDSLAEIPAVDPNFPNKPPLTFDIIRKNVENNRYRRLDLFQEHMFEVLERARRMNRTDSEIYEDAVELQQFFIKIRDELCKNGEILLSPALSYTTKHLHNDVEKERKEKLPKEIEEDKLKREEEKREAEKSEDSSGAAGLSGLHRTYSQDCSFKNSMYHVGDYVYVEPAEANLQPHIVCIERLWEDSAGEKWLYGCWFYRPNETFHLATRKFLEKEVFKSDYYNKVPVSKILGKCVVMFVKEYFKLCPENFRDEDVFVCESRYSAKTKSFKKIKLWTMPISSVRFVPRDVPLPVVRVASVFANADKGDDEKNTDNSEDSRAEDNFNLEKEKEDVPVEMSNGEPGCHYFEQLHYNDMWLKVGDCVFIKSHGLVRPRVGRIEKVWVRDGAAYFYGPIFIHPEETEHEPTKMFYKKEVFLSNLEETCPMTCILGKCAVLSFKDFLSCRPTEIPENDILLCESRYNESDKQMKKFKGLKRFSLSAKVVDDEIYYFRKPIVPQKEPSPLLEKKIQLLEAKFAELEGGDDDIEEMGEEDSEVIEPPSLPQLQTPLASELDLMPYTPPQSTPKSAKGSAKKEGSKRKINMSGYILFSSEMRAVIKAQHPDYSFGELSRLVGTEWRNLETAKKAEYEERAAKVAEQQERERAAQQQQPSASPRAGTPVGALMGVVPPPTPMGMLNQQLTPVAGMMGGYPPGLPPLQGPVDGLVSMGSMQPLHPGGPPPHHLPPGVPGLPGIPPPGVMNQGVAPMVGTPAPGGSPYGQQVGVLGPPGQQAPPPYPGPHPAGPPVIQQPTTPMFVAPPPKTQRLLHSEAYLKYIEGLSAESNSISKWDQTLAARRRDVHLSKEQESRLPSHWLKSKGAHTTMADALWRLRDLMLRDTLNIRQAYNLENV
Sequence of SWI/SNF-related matrix-associated actin-dependent regulator of chromatin subfamily A member 4 (Homo sapiens) (P51532 whole entry): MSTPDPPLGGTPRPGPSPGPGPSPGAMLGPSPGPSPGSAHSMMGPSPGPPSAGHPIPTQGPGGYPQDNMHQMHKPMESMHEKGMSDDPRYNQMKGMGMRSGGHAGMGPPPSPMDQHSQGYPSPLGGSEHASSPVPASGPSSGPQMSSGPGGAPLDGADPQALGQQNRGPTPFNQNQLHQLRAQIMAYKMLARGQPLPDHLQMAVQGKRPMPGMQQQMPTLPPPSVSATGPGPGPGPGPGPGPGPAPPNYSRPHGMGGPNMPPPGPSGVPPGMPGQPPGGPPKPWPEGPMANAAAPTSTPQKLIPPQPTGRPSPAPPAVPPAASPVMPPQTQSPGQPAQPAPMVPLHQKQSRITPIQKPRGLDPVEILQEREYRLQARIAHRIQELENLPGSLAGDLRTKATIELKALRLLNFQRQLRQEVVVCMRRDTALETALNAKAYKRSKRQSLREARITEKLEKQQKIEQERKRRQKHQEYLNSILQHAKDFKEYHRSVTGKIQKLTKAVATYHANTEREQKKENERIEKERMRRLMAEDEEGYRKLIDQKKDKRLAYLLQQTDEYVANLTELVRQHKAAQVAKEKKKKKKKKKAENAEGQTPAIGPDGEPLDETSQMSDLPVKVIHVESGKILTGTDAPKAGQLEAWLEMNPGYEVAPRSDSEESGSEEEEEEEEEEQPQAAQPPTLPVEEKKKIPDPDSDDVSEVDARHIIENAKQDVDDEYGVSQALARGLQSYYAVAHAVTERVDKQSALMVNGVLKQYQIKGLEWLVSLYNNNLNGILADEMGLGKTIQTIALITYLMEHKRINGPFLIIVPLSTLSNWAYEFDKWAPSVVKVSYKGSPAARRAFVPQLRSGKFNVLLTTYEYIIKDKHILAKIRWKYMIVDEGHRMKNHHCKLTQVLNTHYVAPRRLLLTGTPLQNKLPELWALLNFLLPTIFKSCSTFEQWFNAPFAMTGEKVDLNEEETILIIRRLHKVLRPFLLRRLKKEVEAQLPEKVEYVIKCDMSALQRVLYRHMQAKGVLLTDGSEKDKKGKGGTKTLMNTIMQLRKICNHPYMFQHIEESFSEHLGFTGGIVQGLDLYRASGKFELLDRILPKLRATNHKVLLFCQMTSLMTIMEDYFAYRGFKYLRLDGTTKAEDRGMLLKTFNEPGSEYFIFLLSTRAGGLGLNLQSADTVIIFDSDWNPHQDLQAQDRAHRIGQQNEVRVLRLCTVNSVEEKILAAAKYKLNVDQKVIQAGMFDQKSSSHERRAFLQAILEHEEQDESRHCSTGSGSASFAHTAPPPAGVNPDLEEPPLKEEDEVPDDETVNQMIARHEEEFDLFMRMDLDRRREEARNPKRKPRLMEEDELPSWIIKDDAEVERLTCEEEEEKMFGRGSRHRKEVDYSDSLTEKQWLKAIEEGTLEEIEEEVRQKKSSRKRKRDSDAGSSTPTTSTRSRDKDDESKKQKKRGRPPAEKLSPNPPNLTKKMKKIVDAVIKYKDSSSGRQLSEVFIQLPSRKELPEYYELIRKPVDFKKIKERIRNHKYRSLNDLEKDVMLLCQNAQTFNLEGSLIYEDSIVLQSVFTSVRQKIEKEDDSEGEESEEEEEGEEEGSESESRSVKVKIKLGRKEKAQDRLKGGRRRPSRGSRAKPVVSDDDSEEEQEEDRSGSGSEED

O=C(/C=C/N1C[C@H]2C[C@@H]1CN2c1ccccn1)c1ccccc1O
ΔTm [1]: 0.59 °C and -0.66 °C | ΔTm [2]: 0.92 °C | ΔTm [3]: 1.22 °C and 0.26 °C | ΔTm [4]: 1.15 °C | ΔTm [5]: 5.19 °C and 7.18 °C (2×) | ΔTm [6]: 1.1 °C | ΔTm [7]: 0.54 °C | ΔTm [8]: 0.2 °C and 0.15 °C | ΔTm [9]: 0.84 °C | ΔTm [10]: -0.08 °C | ΔTm ([11]; Compound concentration 10.0 uM): 0.98 °C | ΔTm [11, 51]: 2.54 °C | ΔTm [12]: 1.04 °C | ΔTm [13]: 1.62 °C | ΔTm [14]: 0.02 °C | ΔTm [15]: 0.65 °C | ΔTm [16]: 5.23 °C | ΔTm [17]: 6.62 °C and 8.52 °C | ΔTm [18]: 0.56 °C | ΔTm [19]: -0.01 °C | ΔTm [20]: 0 °C | ΔTm [21]: 0.79 °C | ΔTm [22]: 0.61 °C | ΔTm [23]: 1.12 °C | ΔTm [24]: 0.52 °C | ΔTm [25]: 0.34 °C | ΔTm [26]: 1.25 °C | ΔTm [27]: 0.75 °C | ΔTm [28]: 0.24 °C | ΔTm ([29]; Compound concentration 10.0 uM): 1.13 °C | ΔTm [29, 51]: 4.63 °C | ΔTm [30]: -0.08 °C | ΔTm [31]: 0.77 °C | ΔTm [32]: 0.4 °C | ΔTm [33]: 0.71 °C and -0.1 °C | ΔTm [34]: 0.96 °C | ΔTm [35]: -0.23 °C and 0.38 °C | ΔTm [36]: 0.05 °C | ΔTm [37]: 1.02 °C | ΔTm [38]: 0.24 °C | ΔTm [39]: 0.77 °C | ΔTm [40]: 0.85 °C | ΔTm [41]: 0.39 °C | ΔTm [42]: 0.43 °C | ΔTm [43]: 0.19 °C | ΔTm [44]: 0.83 °C | ΔTm [45]: 0.36 °C and -0.62 °C | ΔTm [46]: 0.14 °C | ΔTm [47]: 1.62 °C | ΔTm [48]: 10 °C | ΔTm [49]: 0.5 °C | ΔTm [50]: -0.35 °C
